PubChem BioAssay AID504322 (Emory University Molecular Libraries Screening Center, 2011)
Calls of active or inactive are those of the source. The rule behind the calls is not given here.

Tested on: CHOP reporter cell assay, percent of control
Test: CHOP reporter inhibitor potency, dose response, cell-based (AID 504322);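 note: CHO cells carrying a CHOP reporter stimulated with tunicamycin to induce ER stress; potency is for inhibition of the stress-induced reporter signal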

| Structure (SMILES) | IC50 |
| --- | --- |
| CC1C/C(=C/c2ccccn2)C(=O)/C(=C/c2ccccn2)C1 (stereo not given) | 2.49 µM |
| O=C(Cc1ccccc1)NC(=S)Nc1cccc(C(F)(F)F)c1 | 3.61 µM (inactive) |
| Cc1ccc(NC(=O)O/N=C/c2c(C)nn(C(C)(C)C)c2C)cc1Cl | < 0.16 µM |
| CC(C)(C)c1ccc(C(=O)NNC(=O)c2cccc(Br)c2)cc1 | > 10 µM (inactive) |
| CCOc1cc(C)c(-c2onc(C(F)(F)F)c2-c2csc(C)n2)c(O)c1 | > 10 µM (inactive) |
| OC(CNCCc1ccc(C(F)(F)F)cc1)COc1cccc2ccccc12 (stereo not given) | < 0.16 µM (inactive) |
| O=C(NC(c1ccccc1)c1c(O)ccc2ccccc12)c1ccccc1Cl (stereo not given) | > 10 µM (inactive) |
| Cc1ccc(C(=O)CC(=O)c2cc(Cl)ccc2O)cc1 | 5.51 µM (inactive) |
| Nc1c(S(=O)(=O)c2cccc(Cl)c2)c2nc3ccccc3nc2n1/N=C/c1ccc(O)c(O)c1 | 4.97 µM (inactive) |
| COc1cc(C)nc(N2CCCC(C(=O)Nc3cccc(Cl)c3C)C2)n1 (stereo not given) | 6.3 µM (inactive) |
| C=C(C)COc1ccc(-c2n[nH]c(C)c2-c2ccc(Br)cc2)c(O)c1 | 9.53 µM (inactive) |
| O=C(c1ccc2c3c(cccc13)C(=O)N(O)C2=O)N1CCCCC1 | 1.92 µM |
| N#Cc1nccnc1S(=O)(=O)c1cccs1 | 2.67 µM |
| CC(C)Oc1ccc(CNC(=O)CC(c2ccccc2)c2cc(Cl)ccc2O)cc1 (stereo not given) | 9.59 µM (inactive) |
| CN=C1SC(CC(=O)Nc2ccc(F)cc2F)C(=O)N1/N=C/c1ccc(OC(F)F)c(OC)c1 (stereo not given) | 9.78 µM (inactive) |
| O=S(=O)(Nc1cc(Sc2cccc3cccnc23)c(O)c2ccccc12)c1ccc(F)cc1 | 2.72 µM |
| COc1ccc(N=CC2=C(O)c3ccccc3C2=O)c(OC)c1 | 6.53 µM (inactive) |
| CC1CCc2cc(F)ccc2N1C(=O)CSc1nnc2c(n1)[nH]c1ccc(F)cc12 (stereo not given) | 9.19 µM (inactive) |
| COc1ccc(C(=O)NNC(=O)c2ccccn2)cc1 | 3.12 µM (inactive) |
| CC1CCC(n2c(=S)[nH]c3ccccc3c2=O)CC1 (stereo not given) | > 10 µM (inactive) |
| CCCCn1c(=O)[nH]c(=O)c2c1nc(-c1ccc(OCCC)c(OCC)c1)n2C | > 10 µM (inactive) |
| O=C(CSc1ncnc2[nH]ncc12)Nc1nc(-c2ccc(F)c(F)c2)cs1 | 6.98 µM (inactive) |
| CN(CCCC[C@H](CNCc1ccc(-c2ccccc2)cc1)N1C[C@H](c2ccccc2)N(CCc2ccc(Cl)c(Cl)c2)C(=O)C1=O)Cc1ccc(-c2ccccc2)cc1 | 9.37 µM (inactive) |
| O=[N+]([O-])c1ccc(-c2nn(-c3ccccc3)cc2/C=N/n2c(-c3cccs3)n[nH]c2=S)cc1 | > 10 µM (inactive) |

| Structure (SMILES) | IC50 |
| --- | --- |
| COc1ccc(C(CCNCc2ccc(F)cc2)c2ccc(F)cc2)cc1 (stereo not given) | 9.74 µM (inactive) |
| O=C(CCl)N(c1ccc(Cl)cc1)c1c[nH]c2ccccc12 | 9.58 µM (inactive) |
| C=CCOC(=O)C1=C(C)NC(SCC(=O)Nc2nccs2)=C(C#N)C1c1ccc(Cl)cc1 (stereo not given) | 9.67 µM (inactive) |
| CCc1ccc(OCC(=O)NC(NC(=S)Nc2ccccc2)C(Cl)(Cl)Cl)cc1 (stereo not given) | 8.12 µM (inactive) |
| COc1ccc2nc(Nc3nc(CSc4nc5ccccc5[nH]4)cc(=O)[nH]3)nc(C)c2c1 | 2.33 µM (inactive) |
| Cc1cc(C2=NNC(=NC3CC3)SC2)c(C)n1-c1ccccc1 | < 0.16 µM (inactive) |
| CC(NC(=O)/C(C#N)=C/c1ccc(Cl)c([N+](=O)[O-])c1)c1ccccc1 (stereo not given) | 9.98 µM (inactive) |
| N#C/C(=C\c1ccc([N+](=O)[O-])o1)C(=O)Nc1ccc(F)cc1 | > 10 µM (inactive) |
| CC1CCCC(NCC(O)COC(c2ccc(F)cc2)c2ccc(F)cc2)C1C (stereo not given) | 9.43 µM (inactive) |
| Cc1ccc2c(c1)c1c(n2CC(O)Cn2c(C)nc3ccccc32)CCCC1 (stereo not given) | 6.68 µM (inactive) |
| CCNc1nc(Oc2c(Cl)cccc2Cl)cc(C(F)(F)F)n1 | 2.74 µM |
| CCCCCc1c(C)nc(NCc2ccccc2)[nH]c1=O | 3.65 µM |
| CC(C)(C)OC(=O)CNC(=O)c1[nH]cnc1C(=O)Nc1ccc(Cl)cc1 | 4.69 µM (inactive) |
| Cc1cccc(N2CCN(C(=O)CS(=O)(=O)Cc3nc(-c4ccccc4F)oc3C)CC2C)c1 (stereo not given) | > 10 µM (inactive) |
| CCOC(=O)N1CCC(n2c(=S)[nH]c3cc(OCC)c(OCC)cc3c2=O)CC1 | 4.35 µM (inactive) |
| FC(F)(F)c1ccc(/C=N/NC(=S)NC2CCCCC2)cc1 | 5.03 µM |
| Cc1ccc(-c2cc3c(nn2)-c2ccccc2C3=O)cc1 | 6.03 µM (inactive) |
| C/C(=N\NC(=O)COc1ccc(C(C)(C)C)cc1)c1ccc(N2CCOCC2)cc1 | 9.41 µM (inactive) |
| Cc1ccc(OCC(=O)N2CCN(c3nnc(-c4ccc(C)cc4)c4ccccc34)CC2)cc1 | 8.38 µM (inactive) |
| CCN1CCN(Cc2ccc(NC(=O)c3ccc(C)c(NC(=O)c4c[nH]c5cc(C(F)(F)F)ccc5c4=O)c3)cc2C(F)(F)F)CC1 | 4.74 µM |
| CCN1C=CC(=C2C(=O)c3ccccc3C2=O)C=C1 | 1.11 µM (inactive) |
| CCCCn1c(NS(=O)(=O)c2ccc(C)cc2)c(S(=O)(=O)c2ccccc2)c2nc3ccccc3nc21 | > 10 µM (inactive) |
| O=C1C(=C2SCCCS2)CC/C1=C\c1ccc(F)cc1 | 4.38 µM (inactive) |
| Cc1cc(C)n(-c2nc(N(c3ccccc3)c3ccccc3)nc(-n3nc(C)cc3C)n2)n1 | 9.34 µM (inactive) |

| Structure (SMILES) | IC50 |
| --- | --- |
| COC(=O)c1ccc2c(c1)C(C)(C)C(/C=C/c1ccc(OC)c(OC)c1OC)=[N+]2C | 9.48 µM (inactive) |
| Cc1cccc(/C=C/C(=O)c2cc(Br)ccc(=O)c2O)c1 | 8.57 µM (inactive) |
| O=C(Nc1ccc(-c2nc3ccccc3s2)cc1)C1=COCCO1 | 7.48 µM (inactive) |
| C(=N\Nc1ncnc2sc3c(c12)CCC3)/c1cccs1 | 8.89 µM (inactive) |
| CC1=NN(c2nc(-c3ccc(C)cc3)cs2)C(=O)C1N=Nc1ccccc1O (stereo not given) | 6.66 µM (inactive) |
| OC(c1cccc(OCc2ccccc2)c1)c1nnc(-c2ccccc2)o1 (stereo not given) | > 10 µM (inactive) |
| CC1CCc2c(sc3ncn(CC(=O)N=Nc4c(O)[nH]c5ccccc45)c(=O)c23)C1 (stereo not given) | 7.42 µM (inactive) |
| O=[N+]([O-])c1ccc(-c2nc(C(Cl)Cl)c3ccccc3n2)cc1 | 0.19 µM |
| CC(C)(C)C1C/C(=C/c2ccccn2)C(=O)/C(=C/c2ccccn2)C1 (stereo not given) | 0.3 µM |
| Cc1cc(-c2n[nH]c(=S)n2/N=C/C(Br)=C/c2ccccc2)n[nH]1 | > 10 µM (inactive) |
| O=C1C(C2=NC(c3ccccn3)C3C(=O)N(c4ccc(Cl)cc4Cl)C(=O)C23)=C(O)c2ccccc21 (stereo not given) | 7.17 µM (inactive) |
| CNC(=O)NC(=O)C(C)OC(=O)c1oc2ccccc2c1CSc1ccc(Cl)cc1 (stereo not given) | > 10 µM (inactive) |
| COc1ccc(-c2[nH]ncc2N=Nc2cc(C)cc(C)c2)cc1 | 9.27 µM (inactive) |
| COc1ccc(C2CC(c3c(-c4ccccc4)c4cc(Cl)ccc4[nH]c3=O)=NN2S(C)(=O)=O)cc1OC (stereo not given) | 8.04 µM (inactive) |
| C[C@H]1C[C@@H](C)C(=O)[C@@H]([C@H](O)CC2CC(=O)NC(=O)C2)C1 | < 0.16 µM (inactive) |
| FC(F)(F)c1nnc(-c2ccccc2)nc1Sc1ccc(Cl)cc1 | > 10 µM (inactive) |
| CC(/C=C1\SC(=O)N(CCCC(=O)O)C1=O)=C\c1ccccc1 | < 0.16 µM |
| Cc1ccc(-c2ccc(/C=C(\C#N)C(=O)Nc3cc(C)nn3-c3ccccc3)o2)cc1 | 6.7 µM (inactive) |
| CN(C)c1ccc(/C=C2\SC(=O)N(CCc3nnc(N)s3)C2=O)cc1 | 9.8 µM (inactive) |
| CCn1c(=O)c(C(=O)Nc2nc3ccccc3[nH]2)c(O)c2ccccc21 | 5.84 µM (inactive) |
| CCCCCCCn1c(=O)c(C(=O)Nc2cnccn2)c(O)c2ccccc21 | 3.68 µM |
| Cc1cc(C2(c3ccc(O)c(C)c3)C(=O)Nc3ccccc32)ccc1O | > 10 µM (inactive) |
| O=C(Nc1ccc(Br)c(C(F)(F)F)c1)c1ccc(C(F)(F)F)cc1 | 9.82 µM (inactive) |
| CCCCn1c(N2CCC(Cc3ccccc3)CC2)nc2c1c(=O)[nH]c(=O)n2C | 6.06 µM (inactive) |

| Structure (SMILES) | IC50 |
| --- | --- |
| CCc1c(C)sc(NC(=O)CSc2nc3c(c(C(F)(F)F)n2)CCc2ccccc2-3)c1C#N | 9.75 µM (inactive) |
| CC(C)CCN(C(=O)Cc1ccc(Cl)c(Cl)c1)c1c(N)n(Cc2ccccc2)c(=O)[nH]c1=O | 5.74 µM (inactive) |
| O=C(/C=C/c1ccccc1)Nc1cccc(C(=O)O)c1 | 3.59 µM (inactive) |
| O=C(NC(c1ccccc1)c1cc(Cl)c2cccnc2c1O)c1cccnc1 (stereo not given) | 3.36 µM |
| Cc1cc2c(cc1C)CSC(c1ccccc1O)SC2 | > 10 µM (inactive) |
| CC(C)CC(NC(=O)c1ccc(Cl)cc1)C(=O)OCC(=O)c1ccc2c(c1)NC(=O)CO2 (stereo not given) | 1.6 µM |
| Nc1ccc2c(c1)C(=O)C(=O)c1ccccc1-2 | 5.08 µM (inactive) |
| Cc1cc(C)c2nc(C(F)(F)F)c(C#N)c(N)c2c1 | 8.25 µM (inactive) |
| CC1=NNC(=O)/C1=C\c1cn(-c2ccccc2)nc1-c1ccc(F)cc1 | 9.5 µM (inactive) |
| O=c1c2ccccc2nc2n1CCN2Cc1ccc(Cl)cc1 | 9.8 µM (inactive) |
| CC(C)(C)c1ccc(OCC(=O)N/N=C/C2CC=CCC2)cc1 (stereo not given) | 7.48 µM (inactive) |
| CCOc1cc(S(=O)(=O)Nc2cc(C)cc(C)c2)ccc1Cl | 9.51 µM (inactive) |
| COC(=O)/C(=C1/Oc2cc(C)oc(=O)c2S1)C(F)(F)F | 4.93 µM |
| COc1cc(CNCc2ccccn2)ccc1OCc1ccc(Cl)cc1Cl | 6.74 µM (inactive) |
| O=C(Nc1nccs1)c1cc2c(s1)CCCCC2 | > 10 µM (inactive) |
| CCCCCn1c(SCCC(C)C)nc2c1c(=O)[nH]c(=O)n2C | 6.85 µM (inactive) |
| Cc1c(CN2CCC(CO)(CCOc3ccccc3)CC2)[nH]c2c(Cl)cccc12 | 9.13 µM (inactive) |
| NC(=O)c1cc(-c2ccccc2)nc(N2CCCCCC2)n1 | 9.62 µM (inactive) |
| C=C1C(=O)O[C@@H]2C[C@@H](C)[C@@H]3C4OC4C(=O)[C@@]3(C)[C@@H](O)[C@H]12 (stereo not given in full) | 9.5 µM (inactive) |
| Cc1nc(NC(=O)CSc2nc3cccnc3n2Cc2ccccc2)sc1C | > 10 µM (inactive) |
| CC1CN(S(=O)(=O)c2ccc(C(=O)Nc3nc(-c4cc5ccccc5o4)cs3)cc2)CC(C)O1 (stereo not given) | 9.56 µM (inactive) |
| O=C(OCn1ncc(Cl)c(Cl)c1=O)c1ccc(C(F)(F)F)cc1 | 9.59 µM (inactive) |
| CCCCCCn1c(-c2ccco2)nc2oc3cc(OC)ccc3c(=O)c2c1=O | 9.42 µM (inactive) |
